Laboratory results published in publication PMC7796031, “Studies of Coumarin Derivatives for Constitutive Androstane Receptor (CAR) Activation” (Molecules, 2020).

Experiments:
[1] = system: UGT1A1; assay: Protein expression of UGT1A1 (western blot); type: cell-based, human
Description: (§1) 1 × 10^6 cells were seeded in a 10 cm plate, incubated at 37 °C for overnight and treated with various concentrations of compounds for the indicated times. After incubation, the culture medium was removed and washed twice with 2 mL ice-cold 1× PBS. Three hundred μL of protein lysis buffer (150 mM NaCl, 50 mM Tris-HCl (pH 7.4), 1% SDS, 1% Triton X-100, 1 mM PMSF) was added into each plate, scraped with a rubber policeman, collected into a premarked microtube and the incubated in ice for 1 h, sonicated by Ultrasonic Cell Disruptor for three time at 5 s each. The cell lysated was cleared by centrifugation at 12,000× g for 15 min at 4 °C. Supernatants were transferred into a fresh marked microtube and stored at −20 °C for future use.
Protein concentration of each sample was determined using a BCA Protein Assay Kit (Pirece®, Thermo Scientific). Different percentages of SDS-PAGE gels were prepared according to the molecular size of proteins of interest. After complete polymerization of stacking gels, each sample with equal amount of total protein was separated in polyacrylamide gels (stacking gel: 50 v, 60 min; separating gel: 100 v, 60 min). After separating, wet-transfer method was utilized to transfer proteins onto the PVDF membrane. The gels were assembled in the transfer sandwich and put in a transfer tank filled with transfer buffer (25 mM glycine, 0.15% ethanolamine, 20% methanol). The electro-transfer was performed at the voltage of 100 volt for 80 min at 4 °C. After transfer, PVDF-membrane was blocked with 5% BSA in 1× TBS-Tween at room temperature for 1 h. Membrane was washed with 10 mL 1× TBS-Tween three times and incubated with primary antibodies overnight at 4 °C with gentle agitation. After primary antibody was removed, the membrane was washed three times with 10 mL 1× TBS-Tween for 10 min at room temperature with constant shaking. […] The emitted fluorescence from the membrane was caught on a LAS-4000 biomolecule imager (FUJI.).

[2] = system: FXR; design: method as in PMID 21649640; conditions: scoparone alone, up to 100 μM; cited from earlier work
[3] = system: bile salt export pump; design: method as in PMID 21649640; conditions: scoparone 10 μM with chenodeoxycholic acid 10 μM; cited from earlier work
[4] = system: nuclear CAR; assay: Protein expression of nuclear CAR (nuclear extraction, western blot); type: cell-based, human; conditions: Hep3B, treatment for 2 h
Description: Figure 3 Image of immunofluorescence staining for CAR translocation in Hep3B cells after 6,7-diprenoxycoumarin (50) treatment (A) and scoparone treatment (C). Hep3B cells were treated with 50 (10 μM) for 2 h. The negative control group was pre-treated with 10 nM okadaic acid (OA). The blue and green fluorescence stands for signals of nuclei and CAR protein, respectively. The protein expression of nuclear CAR after 6,7-diprenoxycoumarin (50) treatment for 2 h (B).
Cells were harvest by centrifugation after trypsin-EDTA treatment. The ice-cold CER I (10 μL/1 × 10^6 cells) was added to the cell pellet following the manufacturer’s instruction. The tube was vigorously vortexed on the highest setting for 15 s to fully suspend the cell pellet, incubated on ice for 10 min, then ice-cold CER II was added to the tube and vortexed for 5 s on the highest setting. After incubating in ice for 1 min, tube was vortexed for 5 s on the highest setting then subjected to centrifuge for 5 min at 16,000× g. The supernatant (cytoplasmic fraction) was […] to a clean pre-chilled tube and the nuclear fraction (pellet) was re-suspended in ice-cold NER. […]
Protein concentration of each sample was determined using a BCA Protein Assay Kit (Pirece®, Thermo Scientific). […] The emitted fluorescence from the membrane was caught on a LAS-4000 biomolecule imager (FUJI.).

[5] = target: T1, EGFR (Homo sapiens, UniProt P00533); assay: EGF-induced phosphorylation of EGFR in Hep3B (western blot); type: cell-based; conditions: 10 μM, 15 min
T1 construct: 6,7-Diprenoxycoumarin (50) antagonized EGF-induced phosphorylation EGFR in Hep3B; endogenous in cells; host or cells: Hep3B
T1 sequence (P00533 25-1210): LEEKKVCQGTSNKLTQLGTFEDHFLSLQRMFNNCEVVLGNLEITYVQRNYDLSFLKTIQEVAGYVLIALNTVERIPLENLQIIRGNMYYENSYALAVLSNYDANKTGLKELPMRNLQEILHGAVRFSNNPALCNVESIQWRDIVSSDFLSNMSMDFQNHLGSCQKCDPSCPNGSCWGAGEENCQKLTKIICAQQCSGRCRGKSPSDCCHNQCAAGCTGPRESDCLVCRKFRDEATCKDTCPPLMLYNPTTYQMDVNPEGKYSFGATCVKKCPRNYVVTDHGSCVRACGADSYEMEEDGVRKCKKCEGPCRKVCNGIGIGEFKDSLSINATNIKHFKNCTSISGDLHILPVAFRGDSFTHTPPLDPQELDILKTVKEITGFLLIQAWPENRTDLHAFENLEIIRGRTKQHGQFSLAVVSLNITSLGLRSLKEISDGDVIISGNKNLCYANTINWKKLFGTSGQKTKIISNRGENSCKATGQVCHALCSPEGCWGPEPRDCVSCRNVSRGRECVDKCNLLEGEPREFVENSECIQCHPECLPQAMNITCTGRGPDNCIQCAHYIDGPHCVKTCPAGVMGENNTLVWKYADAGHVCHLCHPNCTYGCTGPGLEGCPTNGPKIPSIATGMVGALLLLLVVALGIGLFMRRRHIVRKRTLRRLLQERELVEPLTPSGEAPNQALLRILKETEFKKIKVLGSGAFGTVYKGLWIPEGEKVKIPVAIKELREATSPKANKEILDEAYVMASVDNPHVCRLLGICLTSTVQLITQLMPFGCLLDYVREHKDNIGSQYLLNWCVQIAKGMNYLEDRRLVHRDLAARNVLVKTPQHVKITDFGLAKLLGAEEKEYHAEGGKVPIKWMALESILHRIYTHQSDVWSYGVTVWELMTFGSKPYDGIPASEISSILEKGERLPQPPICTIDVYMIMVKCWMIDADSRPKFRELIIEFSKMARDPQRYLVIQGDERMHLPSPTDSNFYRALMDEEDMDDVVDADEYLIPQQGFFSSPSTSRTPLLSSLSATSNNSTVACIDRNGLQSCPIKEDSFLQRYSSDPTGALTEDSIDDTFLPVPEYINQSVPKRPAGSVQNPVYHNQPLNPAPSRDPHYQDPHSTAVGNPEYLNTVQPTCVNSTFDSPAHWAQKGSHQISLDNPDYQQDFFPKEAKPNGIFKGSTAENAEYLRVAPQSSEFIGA
Description: Figure 4 6,7-Diprenoxycoumarin (50) antagonized EGF-induced phosphorylation EGFR in Hep3B. The Hep3B cells (1 × 10^6) were treated without (Ctrl) or with EGF in the absent 50 or present (EGF + 50) of 10 μM 50 for 15 min and phosphorylation status of EGFR was measured.
as §1
(§2) Protein concentration of each sample was determined using a BCA Protein Assay Kit (Pirece®, Thermo Scientific). Different percentages of SDS-PAGE gels were prepared according to the molecular size of proteins of interest. […] The emitted fluorescence from the membrane was caught on a LAS-4000 biomolecule imager (FUJI.).

[6] = system: methyl-PP2Ac; assay: PP2Ac methylation status in Hep3B (western blot); type: cell-based, human; conditions: Hep3B, 5, 10, 20 and 40 μM, 24 h
Description: Figure 5 The concentration-dependent study of PP2Ac methylation status under 6,7-diprenoxycoumarin (50) treatment. Hep3B cells (1 × 10^6) were treated with 50 (5, 10, 20 and 40 μM) for 24 h. Treated cell lysates were prepared as described in the Methods section and methyl-PP2Ac expression was analyzed by western blot.
as §1, §2

[7] = system: MRP2; assay: mRNA expression of MRP2 in Hep3B (RT-PCR); type: cell-based, human; conditions: 10 μM, 2, 4, 6, 8 and 10 h
Description: (§3) Figure 6 The time course study of mRNA expression of MRP2 and UGT1A1 after 10 μM 6,7-diprenoxycoumarin treatment. Hep3B cells were treated with 10 μM 50 for 2, 4, 6, 8 and 10 h. The total mRNA was obtained and the expression of downstream genes were analyzed with PCR. The ratio of MRP2 to GAPDH was calculated using Image J and normalization.
(§4) Total RNA was isolated from control and treated cells using a TRIzol reagent (Invitrogen) according to the manufacturer’s instruction. The RNA concentration was measured by a spectrophotometer and equal amounts of total RNA (2 μg) were reverse—transcribed using a RevertAid First Strand cDNA Synthesis Kit (K1622, Fermentas, Hanover, MD, USA). Amplification of cDNA was performed in the PCR reaction buffer (0.2 mM dNTP, 1.5 mM MgCl2, and 0.5 μM of each primer) containing 2.5 units of Taq DNA polymerase. The PCR products were resolved by agarose electrophoresis, visualized by ethidium bromide straining and quantified by Image J®. The PCR cycling procedures and sequences of primers are listed below. PCR conditions: (1) UGT1A1: 94 °C, 30 s; 62 °C, 45 s; 72 °C, 30 s; 27 cycles; (2) MRP2: 94 °C, 30 s; 62 °C, 45 s; 72 °C, 30 s; 27 cycles; (3) CAR: 94 °C, 30 s; 59 °C, 45 s; 72 °C, 30 s; 35 cycles; (4) GADPH: 94 °C, 30 s; 62 °C, 45 s; 72 °C, 30 s; 27 cycles; (4) gtPBREM: 94 °C, 30 s; 63 °C, 30 s; 68 °C, 60 s; 30 cycles.

[8] = system: UGT1A1; assay: mRNA expression of UGT1A1 in Hep3B (RT-PCR); type: cell-based, human; conditions: 10 μM, 2, 4, 6, 8 and 10 h
Description: as §3, §4

| SMILES | protein expression of UGT1A (CAR downstream gene) ([1]; Figure 2, after scoparone or CITCO treatment) | FXR activation [2] | effect on chenodeoxycholic acid-increased expression of bile salt export pump [3] | protein expression of nuclear CAR [4] | EGF-induced phosphorylation of EGFR [5] | methyl-PP2Ac (active form of PP2Ac) [6] | mRNA expression level of MRP2 [7] | mRNA expression level of UGT1A1 [8] | UGT1A1 protein level ([1]; Hep3B) |
| --- | --- | --- | --- | --- | --- | --- | --- | --- | --- |
| COc1cc2ccc(=O)oc2cc1OC [Compound 39, scoparone] | upregulated | no effect | potentiated |  |  |  |  |  |  |
| CC(C)=CCOc1cc2ccc(=O)oc2cc1OCC=C(C)C [Compound 50, 6,7-diprenoxycoumarin] |  |  |  | increased | reduce | increased | enhanced | enhanced | not significantly increased |
